In patent US11881606B2, “Conductive materials to drive bacterial carbon dioxide fixation” (The Government of the United States of America, as …, priority 2019, dated 2024):
“And” between values parts separate entries of the source, which are not always exact repeats. Equal entries are not always repeated.

How the values were obtained:
[1] = system: Biocathode MCL; test: Current production by Biocathode MCL on electrode set at 0.310 V with antibiotics; type: cell-based; settings: ampicillin at 100 μg/ml; electrode potential set at 0.310 V
Experimental: (§1) Biocathode MCL was cultivated in artificial seawater (ASW) medium containing 27.50 g NaCl, 3.80 g MgCl2·6H2O, 6.78 g MgSO4·H2O, 0.72 g KCl, 0.62 g NaHCO3, 5.58 g CaCl2·H2O, 1.00 g NH4Cl, 0.05 g K2HPO4, and 1 ml Wolfe's Trace Mineral Solution per liter. The NaHCO3 was autoclaved in a separate sealed bottle and added after cooling to avoid precipitation. The medium was adjusted to a pH between 6.5 and 6.8 by briefly bubbling with 100% CO2. Source cultures were continuously maintained in 2 liter, 3-electrode reactors with carbon cloth as working and counter electrodes. The working electrode was poised at 0.310 V SHE (standard hydrogen electrode).
For these experiments, bioelectrochemical systems (BES) were 175 ml glass electrochemical reactors (Pine Instruments, Grove City, Pa.). Working electrodes were either 10.5 cm^2 graphite flags (Tri-Gemini, Hillside, Ill.) or carbon cloth (Fuel Cell Earth, Woburn, Mass.) cut to roughly 3.5×1.5 cm for an area of 10.5 cm^2. Counter electrodes were carbon cloth electrodes cut to approximately 3.5×1.5 cm. Graphite flags were sanded down prior to cleaning. Both carbon cloth and graphite flag electrodes were soaked overnight in 1 M hydrochloric acid, then rinsed and soaked overnight in ultrapure deionized water (MilliQ, Millipore-Sigma, Burlington, Mass.). Electrodes were suspended in the reactors from titanium wires, attached by titanium screws. […]

[2] = system: Biocathode MCL; test: Effect of antibiotics and cyanide on the open circuit potential (OCP) of electrodes with Biocathode MCL biofilm; type: cell-based
Experimental: FIGS. 3A and 3B illustrate the effect of the addition of antibiotics on the open circuit potential (OCP). […]
as §1
For these experiments, bioelectrochemical systems (BES) were 175 ml glass electrochemical reactors (Pine Instruments, Grove City, Pa.). Working electrodes were either 10.5 cm^2 graphite flags (Tri-Gemini, Hillside, Ill.) or carbon cloth (Fuel Cell Earth, Woburn, Mass.) cut to roughly 3.5×1.5 cm for an area of 10.5 cm^2. Counter electrodes were carbon cloth electrodes cut to approximately 3.5×1.5 cm. Graphite flags were sanded down prior to cleaning. Both carbon cloth and graphite flag electrodes were soaked overnight in 1 M hydrochloric acid, then rinsed and soaked overnight in ultrapure deionized water (MilliQ, Millipore-Sigma, Burlington, Mass.). Electrodes were suspended in the reactors from titanium wires, attached by titanium screws. The reference electrodes for the experiments were 3 M KCl Ag/AgCl (BASI, West Lafayette, Ind.) washed in bleach and rinsed in sterile ultrapure deionized water. All potentials are reported here as vs. SHE by adding 0.21V to the experimental potentials vs. Ag/AgCl.
Once assembled, the BES were maintained at 30° C. using water jackets and stirred using small stir bars and stir plates (VWR, Radnor, Pa., USA). The electrodes were connected to a multichannel potentiostat (Biologic, Seyssinet-Pariset, France), which was used to record cyclic voltammograms at fast (20 mV/S) and slow (0.2 mV/S) scan rates, and then to monitor the OCP or, for experiments with set potential, to hold the potential at 0.310 V and monitor current production. After the signal stabilized, the reactors were inoculated with 1 ml of initial inoculum diluted 10^−3 or 10^−4-fold. Based on the cell counts of filtered inoculum, reactors in experiment 1 were inoculated with ca. 30 or ca. 300 cells, while reactors in experiment 2 were inoculated with ca. 110 or ca. 1100 cells and reactors in experiment 3 were inoculated with 700 cells.
The effect of antibiotics on the open circuit potential was examined in order to determine whether the maintenance of the OCP was dependent on metabolically active cells. Because ampicillin kills only dividing cells (by interfering with cell wall formation^21), while kanamycin kills by interfering with translation machinery (killing bacteria that are actively manufacturing proteins^21), these antibiotics were used to determine the rough metabolic state of the cells.
To test how long the cells remained active and sensitive to antibiotics, reactors were incubated for 26 days before antibiotic additions. The inoculated reactors maintained an OCP close to 0.50 V vs. SHE during the 26-day incubation. […] Cyanide, which inhibits cytochrome function, caused an immediate drop in potential in both old and young reactors (FIGS. 3A and 3B).

[3] = added 10 days after inoculation

Row | Structure (SMILES) | Current production [1] | OCP at end of drop [2, 3] | Time until OCP began dropping [2, 3] [days] | Time until OCP reduction began ([2]; added 26 days after inoculation) | Effect on OCP ([2]; added 26 days after inoculation, followed for two weeks) | Time until drop in OCP began ([2]; added 10 days after inoculation, two experiments)
1 | CC1(C)S[C@@H]2[C@H](NC(=O)[C@H](N)c3ccccc3)C(=O)N2[C@H]1C(=O)O [ampicillin] | inhibited | return to its pre-inoculation level | 2 to 3 | two | not returning to the abiotic OCP even after two weeks | 
2 | NC[C@H]1O[C@H](O[C@H]2[C@H](O)[C@@H](O[C@H]3O[C@H](CO)[C@@H](O)[C@H](N)[C@H]3O)[C@H](N)C[C@@H]2N)[C@H](O)[C@@H](O)[C@@H]1O [kanamycin] |  |  |  |  |  | 13 h and 10 h
